This passage reports IC50 results from patent publication US8987268B2, “Pyrrolopyridazine JAK3 inhibitors and their use for the treatment of inflammatory and autoimmune diseases” (Bristol-Myers Squibb Company, priority 2011, dated 2015).

The IC50 is the point on the concentration scale where inhibition reaches its midpoint.

One experiment concerns the target GST-JAK3 enzyme (Homo sapiens (Human), UniProt P52333). Kind of experiment: JAK3 Kinase Assay Protocol (Caliper). Format: biochemical. The note with it: JAK3 kinase inhibition; read-out: LLE_JAK3_FB (IC50). How it is done: JAK3 Kinase Assay Protocol (Caliper)
(§1) The assay reactions were performed in U-bottom 384-well plates. […] The reaction was initiated by the combination of GST-JAK3 enzyme with substrates and test compounds. The reactions were incubated at room temperature for 3 hours and terminated by adding 60 μl of 35 mM EDTA to each sample. Each reaction mixture was analyzed on the Caliper LabChip 3000 (Caliper, Hopkinton, Mass.) by electrophoretic separation of the fluorescent substrate and phosphorylated product. […] Compounds were dissolved at 10 mM in dimethylsulfoxide (DMSO) and evaluated at eleven concentrations. IC50 values were derived by non-linear regression analysis.

The next experiment concerns the target GST-JAK1 enzyme (Homo sapiens (Human), UniProt P23458). Briefly: JAK1 Kinase Assay Protocol. Format: biochemical. The note with it: JAK1 kinase inhibition; read-out: LLE_JAK1 (IC50). Here is the method: JAK1 Kinase Assay Protocol
as §1, with “GST-JAK1” for “GST-JAK3”

SMILES strings stand for the structures.

Chain of GST-JAK1 enzyme (P23458 whole entry): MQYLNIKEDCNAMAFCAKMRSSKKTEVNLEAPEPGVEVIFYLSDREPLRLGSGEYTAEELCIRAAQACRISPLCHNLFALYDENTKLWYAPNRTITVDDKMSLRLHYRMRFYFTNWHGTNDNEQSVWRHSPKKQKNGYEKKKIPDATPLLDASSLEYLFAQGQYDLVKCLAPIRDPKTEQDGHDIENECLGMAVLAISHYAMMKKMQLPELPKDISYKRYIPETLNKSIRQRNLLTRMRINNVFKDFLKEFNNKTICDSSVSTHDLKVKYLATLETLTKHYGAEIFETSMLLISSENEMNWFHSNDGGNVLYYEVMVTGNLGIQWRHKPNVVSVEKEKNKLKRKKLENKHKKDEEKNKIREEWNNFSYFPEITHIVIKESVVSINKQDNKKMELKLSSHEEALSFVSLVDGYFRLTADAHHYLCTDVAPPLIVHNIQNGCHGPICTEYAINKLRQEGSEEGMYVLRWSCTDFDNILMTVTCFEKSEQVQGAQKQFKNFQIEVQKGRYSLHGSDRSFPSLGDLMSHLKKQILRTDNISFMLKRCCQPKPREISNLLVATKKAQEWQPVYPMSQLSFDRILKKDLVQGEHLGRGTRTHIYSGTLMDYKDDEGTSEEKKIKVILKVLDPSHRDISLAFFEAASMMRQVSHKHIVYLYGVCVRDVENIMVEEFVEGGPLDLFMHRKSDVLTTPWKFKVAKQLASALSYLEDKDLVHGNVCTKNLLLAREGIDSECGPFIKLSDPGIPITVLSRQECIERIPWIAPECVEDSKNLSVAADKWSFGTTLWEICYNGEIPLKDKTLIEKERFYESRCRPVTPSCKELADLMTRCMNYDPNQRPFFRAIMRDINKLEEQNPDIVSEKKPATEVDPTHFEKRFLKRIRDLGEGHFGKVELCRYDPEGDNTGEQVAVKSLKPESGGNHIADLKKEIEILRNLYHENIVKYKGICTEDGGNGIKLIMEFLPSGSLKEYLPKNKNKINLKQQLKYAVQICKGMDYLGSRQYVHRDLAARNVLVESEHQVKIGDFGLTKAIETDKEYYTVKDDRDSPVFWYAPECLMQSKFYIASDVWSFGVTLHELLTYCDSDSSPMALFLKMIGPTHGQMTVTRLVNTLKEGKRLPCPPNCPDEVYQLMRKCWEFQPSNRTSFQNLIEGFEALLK
Chain of GST-JAK3 enzyme (P52333 whole entry): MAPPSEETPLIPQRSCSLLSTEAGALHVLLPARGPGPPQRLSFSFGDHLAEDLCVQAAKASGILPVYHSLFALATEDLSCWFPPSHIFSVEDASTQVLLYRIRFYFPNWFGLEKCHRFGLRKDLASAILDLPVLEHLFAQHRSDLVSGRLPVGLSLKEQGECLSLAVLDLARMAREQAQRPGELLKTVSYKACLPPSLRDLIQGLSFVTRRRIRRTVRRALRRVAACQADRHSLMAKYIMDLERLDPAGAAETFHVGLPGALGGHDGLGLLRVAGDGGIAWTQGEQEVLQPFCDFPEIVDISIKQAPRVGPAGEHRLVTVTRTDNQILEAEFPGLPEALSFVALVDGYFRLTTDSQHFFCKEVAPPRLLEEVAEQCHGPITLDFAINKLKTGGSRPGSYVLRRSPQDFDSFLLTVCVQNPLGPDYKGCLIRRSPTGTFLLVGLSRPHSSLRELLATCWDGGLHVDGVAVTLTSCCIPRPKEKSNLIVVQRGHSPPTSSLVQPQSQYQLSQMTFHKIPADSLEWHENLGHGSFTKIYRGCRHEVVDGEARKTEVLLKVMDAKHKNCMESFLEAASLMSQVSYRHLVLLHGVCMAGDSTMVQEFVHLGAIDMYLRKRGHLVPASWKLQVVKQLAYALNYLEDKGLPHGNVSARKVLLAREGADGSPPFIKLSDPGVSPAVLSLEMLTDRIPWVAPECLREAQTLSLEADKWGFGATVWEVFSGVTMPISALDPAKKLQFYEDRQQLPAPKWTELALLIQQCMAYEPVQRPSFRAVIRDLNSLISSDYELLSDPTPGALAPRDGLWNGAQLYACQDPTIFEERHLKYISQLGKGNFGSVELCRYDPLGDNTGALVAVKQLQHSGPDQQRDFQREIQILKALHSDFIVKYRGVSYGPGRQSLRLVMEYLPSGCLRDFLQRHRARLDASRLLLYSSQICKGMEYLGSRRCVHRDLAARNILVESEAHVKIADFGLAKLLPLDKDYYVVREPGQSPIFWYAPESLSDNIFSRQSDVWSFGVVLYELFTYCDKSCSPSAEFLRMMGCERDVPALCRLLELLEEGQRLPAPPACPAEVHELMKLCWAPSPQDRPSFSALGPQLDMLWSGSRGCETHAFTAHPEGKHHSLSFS

For the compound `CC[C@H]1CN(c2ccc(C#N)cn2)C[C@H]1Nc1c(C(N)=O)cnn2cc(-c3cnn(C)c3)cc12` [Example 175, 4-((3S,4S)-1-(5-cyanopyridin-2-yl)-4-ethylpyrrolidin-3-ylamino)-6-(1-methyl-1H-pyrazol-4-yl)pyrrolo[1,2-b]pyridazine-3-carboxamide], the figures for the IC50 on GST-JAK3 enzyme and at GST-JAK1 enzyme were 1.5 nM and 1.9 nM, respectively.
In the case of `CC[C@H]1CN(c2ccc(C#N)cn2)C[C@H]1Nc1c(C(N)=O)cnn2cc(-c3ccc(=O)n(C)c3)cc12` [Example 173, 4-((3S,4S)-1-(5-cyanopyridin-2-yl)-4-ethylpyrrolidin-3-ylamino)-6-(1-methyl-6-oxo-1,6-dihydropyridin-3-yl)pyrrolo[1,2-b]pyridazine-3-carboxamide], the IC50 on GST-JAK3 enzyme is 0.4 nM; on GST-JAK1 enzyme it was 0.8 nM.
The like results for `C[C@@H]1[C@H]2CN(C(=O)CO)C[C@H]2C[C@H]1Nc1c(C(N)=O)cnn2cc(-c3ccc(C(N)=O)cc3)cc12` [Example 61, 6-(4-carbamoylphenyl)-4-(((3aS,4R,5R,6aS)-2-glycoloyl-4-methyloctahydrocyclopenta[c]pyrrol-5-yl)amino)pyrrolo[1,2-b]pyridazine-3-carboxamide] were, in that order, 0.4 nM and 0.3 nM.
Turning to `CS(=O)(=O)N1CCC[C@H](Nc2c(C(N)=O)cnn3cc(-c4ccccc4)cc23)C1` [Example 46, 4-(((3S)-1-(methylsulfonyl)-3-piperidinyl)amino)-6-phenylpyrrolo[1,2-b]pyridazine-3-carboxamide], the IC50 was found to be 20.9 nM on GST-JAK3 enzyme and 58 nM on GST-JAK1 enzyme.
Turning to `CC[C@H]1CN(C(=O)C2(C#N)CC2)C[C@H]1Nc1c(C(N)=O)cnn2cc(-c3cn(C)nc3C)cc12` [Example 220, 4-((3S,4S)-1-(1-cyanocyclopropanecarbonyl)-4-ethylpyrrolidin-3-ylamino)-6-(1,3-dimethyl-1H-pyrazol-4-yl)pyrrolo[1,2-b]pyridazine-3-carboxamide], the figures for the IC50 at GST-JAK3 enzyme and at GST-JAK1 enzyme were 1.5 nM and 1.1 nM, respectively.
In the same order, the values of `CC1(C)CN(c2ccc(C#N)cn2)CC[C@H]1Nc1c(C(N)=O)cnn2cc(N3CC[C@@H](O)C3=O)cc12` [Example 105, 4-((R)-1-(5-cyanopyridin-2-yl)-3,3-dimethylpiperidin-4-ylamino)-6-((R)-3-hydroxy-2-oxopyrrolidin-1-yl)pyrrolo[1,2-b]pyridazine-3-carboxamide] are 0.2 nM and 0.7 nM.
The like results for `COc1ncc(-c2cc3c(N[C@@H]4CN(C(=O)C5(C#N)CC5)C[C@@H]4CF)c(C(N)=O)cnn3c2)cn1` [Example 280, 4-((3S,4S)-1-(1-cyanocyclopropanecarbonyl)-4-(fluoromethyl)pyrrolidin-3-ylamino)-6-(2-methoxypyrimidin-5-yl)pyrrolo[1,2-b]pyridazine-3-carboxamide] were, in that order, 8.9 nM and 0.9 nM.
Consider `CC[C@H]1CN(C(=O)C2(C#N)CCC2)C[C@H]1Nc1c(C(N)=O)cnn2cc(-c3ccnc(Cl)c3)cc12` [Example 257, 6-(2-chloropyridin-4-yl)-4-((3S,4S)-1-(1-cyanocyclobutanecarbonyl)-4-ethylpyrrolidin-3-ylamino)pyrrolo[1,2-b]pyridazine-3-carboxamide], for which the half-maximal inhibitory concentration (IC50) on GST-JAK3 enzyme stood at 0.3 nM; at GST-JAK1 enzyme, 1.2 nM.
Regarding `C[C@H]1CN(c2ccc(C#N)cn2)C[C@H]1Nc1c(C(N)=O)cnn2cc(-c3cnn(CC(=O)N4CC(F)(F)C4)c3)cc12` [Example 184, 4-(((3S,4S)-1-(5-cyanopyridin-2-yl)-4-methylpyrrolidin-3-yl)amino)-6-(1-(2-(3,3-difluoroazetidin-1-yl)-2-oxoethyl)-1H-pyrazol-4-yl)pyrrolo[1,2-b]pyridazine-3-carboxamide], the IC50 at GST-JAK3 enzyme came to 0.4 nM; at GST-JAK1 enzyme, 0.2 nM.
